{
  "source": "patent US20140249056A1",
  "about": "“BILAYERS” (ISIS INNOVATION LIMITED, priority 2009, published 2014)",
  "key": {"[1]": {"molecular_target": "T1, bacterial potassium channel KcsA (Streptomyces lividans, UniProt P0A334)", "T1 construct": "made in house; host or cells: porin-free E. coli strain PC2889, vector pQE60", "T1 sequence (P0A334 1-160)": "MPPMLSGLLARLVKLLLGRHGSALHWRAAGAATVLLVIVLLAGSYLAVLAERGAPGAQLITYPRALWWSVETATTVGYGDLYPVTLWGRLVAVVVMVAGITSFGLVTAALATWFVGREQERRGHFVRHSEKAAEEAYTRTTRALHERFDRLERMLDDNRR", "test": "Bulk current block of KcsA from E. coli membranes reconstituted in droplet bilayer", "assay_type": "biochemical", "settings": "150 mM Ba2+ (BaCl2) in droplet, +50 mV, n=5", "procedure": "KcsA was overexpressed in pQE60 (Qiagen, Germany) using a porin-free E. coli strain PC2889. Cells were disintegrated using a pressure-based cell homogenizer (TC5-612, Stansted Fluid Power, UK) and membranes isolated by centrifugation in water before freezing in liquid nitrogen. Sedimented membranes were resuspended in 150 mM KCl, 10 mM Hepes, pH 7.5. Membrane preparations were diluted 1:10^6 (for all cases dilutions are reported as volume:volume unless stated otherwise) and 1:10^8 for bulk and single channel recordings, respectively. Bulk and single channel recording was performed in 150 mM KCl, 10 mM Succinic acid, pH 4. Blocking experiments were performed using droplets containing 150 mM BaCl2, 10 mM Hepes, pH 7.5 (+50 mV, n=5)."}, "[2]": {"system": "KATP channel (Kir6.2 and SUR1)", "test": "Bulk current block of KATP channels from Min6 cell membranes reconstituted in droplet bilayer", "assay_type": "biochemical", "settings": "glibenclamide 1 mM, +50 mV, 140 mM KCl, 10 mM Hepes, pH 7.5, n=5", "procedure": "For KATP channels, Kir6.2 and SUR1 (Sulfonylurea receptor) were co-expressed in Min6 cells. Frozen cells were subjected to three freeze-thaw cycles before they were sonicated for 1 minute (4° C., Sonorex, Bandelin, Germany, 320 W). After isolation of membranes by centrifugation, membranes were washed in isotonic buffer (140 mM KCl, 10 mM Hepes, pH 7.5), and diluted 1:5000. Membranes were incorporated into agarose by mixing (1:10 v:v) with cooling agarose (1.5%) and deposited onto the coverslip prior to device assembly. For single channel recordings the sample was diluted a further 10-fold. Electrical recordings were performed in 140 mM KCl, 10 mM Hepes, pH 7.5 in both droplet and agarose support. Bulk current block was obtained using glybenclamide (1 mM, +50 mV, n=5)."}, "[3]": {"molecular_target": "T2, Kv1.3 (K+ channels from lymphocyte membranes) (Homo sapiens, UniProt P22001)", "T2 construct": "endogenously expressed voltage-gated potassium channels in primary lymphocytes; endogenous in cells; host or cells: SupT1 cells", "T2 sequence (P22001 whole entry)": "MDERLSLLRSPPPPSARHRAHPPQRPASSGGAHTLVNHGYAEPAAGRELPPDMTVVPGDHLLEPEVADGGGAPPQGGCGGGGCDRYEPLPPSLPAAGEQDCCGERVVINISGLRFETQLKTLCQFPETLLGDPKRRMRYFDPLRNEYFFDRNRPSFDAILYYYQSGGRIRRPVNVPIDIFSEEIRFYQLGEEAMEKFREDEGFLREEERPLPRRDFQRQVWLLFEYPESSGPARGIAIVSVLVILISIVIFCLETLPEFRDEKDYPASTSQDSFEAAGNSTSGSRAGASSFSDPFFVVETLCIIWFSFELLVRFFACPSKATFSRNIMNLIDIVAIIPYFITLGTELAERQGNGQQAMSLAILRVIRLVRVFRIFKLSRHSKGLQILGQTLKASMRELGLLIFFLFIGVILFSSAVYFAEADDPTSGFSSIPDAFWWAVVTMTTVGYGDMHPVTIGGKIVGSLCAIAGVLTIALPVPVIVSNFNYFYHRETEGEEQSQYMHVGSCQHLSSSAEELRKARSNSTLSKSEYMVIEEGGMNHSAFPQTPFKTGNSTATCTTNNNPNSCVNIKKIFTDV", "test": "Bulk current block of voltage-gated potassium channels from lymphocyte (SupT1) membranes in droplet bilayer", "assay_type": "biochemical", "settings": "+50 mV", "procedure": "SupT1 cells were grown as a suspension culture and washed four times in buffer (150 mM KCl, 10 mM Hepes, pH 7.5). Cells were then lysed by hypo-osmotic shock, and membranes isolated by centrifugation and washing in isotonic buffer (140 mM KCl, 10 mM Hepes, pH 7.5). Membranes were diluted 1:10^4 and 1 μL of this solution was deposited on an agarose coated coverslip (1.5%). For bulk current blocking 4-aminopyridine a non-specific K+ channel blocker was used (5 mM, +50 mV). For specific blocking Kaliotoxin, a specific Kv-channel blocker, was used (50 μM, +50 mV)."}, "Gardos K+ ion channel": {"molecular_target": "T3, Gardos K+ ion channel (Homo sapiens, UniProt O15554+P0DP23)", "T3 construct": "red blood cells were isolated from whole blood; from tissue; host or cells: red blood cells from whole blood", "test": "Ca2+ dependent K+ flux in red blood cell membranes reconstituted in droplet bilayer", "assay_type": "biochemical", "settings": "5 mM Ca2+ versus none, 150 mM KCl, pH 7, +50 mV, n=5", "procedure": "Following previously published protocol (Gibson et al, J Physiol: 511(Pt1), 225-234 (1998)), red blood cells were isolated from whole blood of Sickle Cell or healthy individuals by centrifugation and washing four times in PBS buffer (137 mM NaCl, 2.7 mM KCl, 10 mM sodium phosphate dibasic, 2 mM potassium phosphate monobasic, pH 7.4, containing 1% glucose), removing remaining blood components by aspiration. Cells were lysed by hypo-osmotic shock in low salt buffer (15 mM NaCl, 10 mM EDTA, 10 mM Hepes, pH 7). Membranes were then sedimented by centrifugation and washed in low salt buffer four times before resuspension into isotonic buffer (150 mM NaCl or KCl or CaCl2, 10 mM Hepes, pH 7.4). For Gardos channel experiments, membranes were resuspended in isotonic buffer containing 150 mM KCl, 10 mM Hepes, pH 7. Droplets with or without Ca^2+ (150 mM KCl, +/−5 mM CaCl2, +/−5 mM KCl, 10 mM Hepes, pH 7, +50 mV, n=5) were used to observe Ca^2+ dependent K^+ flux. […] Further dilution of 1:20 was needed for single channel recordings."}, "[4]": {"molecular_target": "Human NR1-1a/NR2A NMDA receptor (Homo sapiens, UniProt Q05586+Q12879)", "sequence (Q12879 23-1464, other chains not shown)": "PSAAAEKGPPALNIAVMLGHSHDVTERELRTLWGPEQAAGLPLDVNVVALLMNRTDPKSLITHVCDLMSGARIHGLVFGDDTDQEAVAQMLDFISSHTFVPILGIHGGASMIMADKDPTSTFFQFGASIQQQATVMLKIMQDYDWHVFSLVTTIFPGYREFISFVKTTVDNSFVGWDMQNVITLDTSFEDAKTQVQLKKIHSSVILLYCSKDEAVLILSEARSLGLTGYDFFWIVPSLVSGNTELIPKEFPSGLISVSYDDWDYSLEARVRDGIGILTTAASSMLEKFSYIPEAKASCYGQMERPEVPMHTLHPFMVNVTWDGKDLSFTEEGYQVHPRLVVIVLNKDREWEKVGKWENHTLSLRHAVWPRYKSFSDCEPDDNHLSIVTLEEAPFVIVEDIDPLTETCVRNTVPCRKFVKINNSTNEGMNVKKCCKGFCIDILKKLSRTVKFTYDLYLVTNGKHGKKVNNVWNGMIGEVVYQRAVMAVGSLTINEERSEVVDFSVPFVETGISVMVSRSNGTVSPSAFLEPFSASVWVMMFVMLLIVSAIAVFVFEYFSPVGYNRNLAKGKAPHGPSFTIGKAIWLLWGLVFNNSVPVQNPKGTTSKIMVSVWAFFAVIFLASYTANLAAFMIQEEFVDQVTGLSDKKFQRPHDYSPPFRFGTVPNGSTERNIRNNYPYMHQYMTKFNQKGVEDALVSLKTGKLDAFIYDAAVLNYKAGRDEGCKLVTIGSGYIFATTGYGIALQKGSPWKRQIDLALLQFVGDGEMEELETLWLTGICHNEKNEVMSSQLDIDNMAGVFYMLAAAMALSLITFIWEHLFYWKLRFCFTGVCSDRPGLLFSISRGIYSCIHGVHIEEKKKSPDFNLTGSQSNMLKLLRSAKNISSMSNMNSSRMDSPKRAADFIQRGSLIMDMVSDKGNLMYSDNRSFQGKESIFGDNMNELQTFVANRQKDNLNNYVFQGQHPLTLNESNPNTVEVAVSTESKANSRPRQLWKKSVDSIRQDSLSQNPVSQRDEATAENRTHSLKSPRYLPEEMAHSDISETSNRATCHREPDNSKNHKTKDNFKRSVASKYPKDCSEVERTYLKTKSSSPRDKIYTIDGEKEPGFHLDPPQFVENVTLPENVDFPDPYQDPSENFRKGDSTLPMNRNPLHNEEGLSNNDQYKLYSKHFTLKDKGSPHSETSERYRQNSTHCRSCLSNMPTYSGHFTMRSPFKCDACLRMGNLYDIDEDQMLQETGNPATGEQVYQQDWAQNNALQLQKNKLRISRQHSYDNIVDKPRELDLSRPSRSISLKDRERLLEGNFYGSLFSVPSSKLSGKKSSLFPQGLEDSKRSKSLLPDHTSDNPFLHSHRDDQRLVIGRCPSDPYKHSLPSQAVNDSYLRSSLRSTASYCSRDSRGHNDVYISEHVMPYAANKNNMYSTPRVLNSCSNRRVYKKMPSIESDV", "settings": "glutamate 10 μM and glycine 10 μM added together, +50 mV, bulk current, n=5", "description": "Human NR1-1a/NR2A receptor subunits were expressed in a adherent mouse fibroblast 3T3 cell line. After mechanically detaching cells from culture flasks, cells were washed in isotonic buffer (3 times with 140 mM NaCl, 10 mM Hepes, pH 7.5), Cells were then mechanically disrupted by 30 s of ultrasound (Sonorex, Bandelin, Germany, 320 W) and four freeze-thaw cycles. After isolating the membranes by centrifugation and washing in the above buffer, the sample was diluted into the same buffer (1:10^3). […] Upon further dilution of the membrane preparation (1:100) single channels could be recorded (+50 mV applied voltage)."}},
  "data": [
    {"compound": "[Ba+2].[Cl-].[Cl-]", "note": "[Ba^2+, BaCl2]", "values": [
      {"measurement": "block in current", "setting": "[1]", "value": 93, "unit": "%"}
    ]},
    {"compound": "COc1ccc(Cl)cc1C(=O)NCCc1ccc(S(=O)(=O)NC(=O)NC2CCCCC2)cc1", "note": "[glibenclamide]", "values": [
      {"measurement": "bulk currents blocked", "setting": "[2]", "value": 91, "unit": "%"}
    ]},
    {"compound": "Nc1ccncc1", "note": "[4-aminopyridine]", "values": [
      {"measurement": "block of bulk current (ion flux reduced)", "setting": "[3]; 5 mM 4-aminopyridine", "value": 96, "unit": "%"}
    ]},
    {"compound": "Kaliotoxin: a specific Kv-channel blocker", "values": [
      {"measurement": "block of bulk current (ion flux reduced)", "setting": "[3]; 50 μM Kaliotoxin", "value": 99, "unit": "%"},
      {"measurement": "block of bulk current (ion flux reduced)", "setting": "[3]; 50 μM Kaliotoxin, listed as KTX", "value": 99.4, "unit": "%"}
    ]},
    {"compound": "[Ca+2].[Cl-].[Cl-]", "note": "[Ca^2+, CaCl2]", "values": [
      {"measurement": "increase of Ca2+ induced K+ flux", "setting": "Gardos K+ ion channel", "value": "seven"}
    ]},
    {"compound": "NCC(=O)O", "note": "[glycine]", "values": [
      {"measurement": "increase in ionic flux", "setting": "[4]", "value": 98, "unit": "%"}
    ]}
  ]
}
